# Where two headings read alike, the source gives them in different places.
# Tests used:
# [1] = target: PfATC (Plasmodium falciparum, UniProt A0A5K1K910); experiment: biochemical
# Experimental: Following washing with Lysis buffer
# Excess imidazole was removed and the His-tag was cleaved
# 400Then, the sample was loaded onto a 5 ml HiTrap SP HP column (GE Healthcare, USA) and
# 410PfATC activity assay. Enzymatic reactions were performed in a total volume of 150 µL in 50 mM
# Small-molecule dose-response curves were
# The reactions were initiated by adding CP and quenched after 10 min with
# After plates were sealed with transparent sealing
# (§1) 420tape to prevent evaporation and incubated overnight in the dark place at room temperature. After
# Analyses were performed using
# The enzymatic assay was performed as described herein above for
# Briefly, the reaction was carried out at room
# The reaction was initiated by
# Then the plate was covered by sealing
# (§2) 430tape and kept in dark place at room temperature and then heated to 95 °C for 15min in dark and kept
# [2] = target: T1, HsATC (Homo sapiens, UniProt P27708); experiment: HsATC activity assay; format: biochemical; settings: in vitro activity assay, 10 mM L-aspartate, 5 mM carbamoyl phosphate; read-out: HsATC IC50
# T1 construct: ATCase domain of CAD; made in house; host or cells: E. coli BL21 star
# T1 sequence (P27708 1918-2225 limits assumed): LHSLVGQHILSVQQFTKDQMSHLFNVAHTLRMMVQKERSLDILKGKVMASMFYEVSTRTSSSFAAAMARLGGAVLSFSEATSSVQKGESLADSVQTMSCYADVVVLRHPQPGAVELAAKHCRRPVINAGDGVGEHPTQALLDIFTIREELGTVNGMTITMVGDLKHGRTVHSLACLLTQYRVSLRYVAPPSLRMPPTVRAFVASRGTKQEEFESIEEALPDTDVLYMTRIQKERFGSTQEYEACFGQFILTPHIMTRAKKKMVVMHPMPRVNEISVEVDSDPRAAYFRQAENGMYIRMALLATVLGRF
# Experimental: 417100μL of stop mix (two volumes of Antipyrine (26.5 mM 2,3-Dimethyl-1-phenyl-3-pyrazolin-5-
# 418one in 50% (v/v) sulfuric acid) and one volume of 2,3-Butanedione monoxime (80 mM 2,3-
# 419Butanedione monoxime in 5% (v/v) acetic acid). After plates were sealed with transparent sealing
# as §1
# 421incubation, the plates were heated at 95 °C for 15 min in dark place, and kept for 30 min before
# 422measuring at 466 nm suing a Synergy H1 Hybrid Reader (BioTek). Analyses were performed using
# 423Microsoft Excel and Graph Pad Prism.
# 424HsATC activity assay. The enzymatic assay was performed as described herein above for
# 425enzymatic assay of PfATC with minor modifications. Briefly, the reaction was carried out at room
# 426temperature in a total volume of 150 μl of 10 mM L-aspartate and 5 mM carbamoyl phosphate
# 427saturated substrate solution in 50 mM Tris-Acetate buffer pH 8.3. hsATC was pre-incubated with
# 428inhibitor and L-Asp for 10 min at room temperature on a shaker. The reaction was initiated by
# 429adding CP and stopped after 5 min with […] color mix. Then the plate was covered by sealing
# as §2
# 431the plate in the dark for another 30 min before measuring the absorbance at 466 nm suing a Synergy
# 432H1 Hybrid Reader (BioTek). […]
# [3] = in vitro activity assay, PfATC 50 nM, 2 mM CP, 1 mM aspartate, read-out: PfATC IC50
# [4] = in vitro enzyme assay, PfATC 50 nM, n = 3, read-out: IC50 against PfATC
# PfATC, sequence (A0A5K1K910 entry or part of it): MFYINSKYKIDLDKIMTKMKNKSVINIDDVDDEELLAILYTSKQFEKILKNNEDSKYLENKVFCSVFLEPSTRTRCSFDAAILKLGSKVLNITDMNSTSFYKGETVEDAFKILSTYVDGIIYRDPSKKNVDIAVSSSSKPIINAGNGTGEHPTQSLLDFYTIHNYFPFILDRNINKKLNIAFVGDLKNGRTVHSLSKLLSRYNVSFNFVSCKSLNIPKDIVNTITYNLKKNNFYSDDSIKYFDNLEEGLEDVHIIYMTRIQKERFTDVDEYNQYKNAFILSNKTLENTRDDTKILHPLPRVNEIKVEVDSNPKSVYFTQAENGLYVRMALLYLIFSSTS
Compound,"IC50 [1, 3] [nM]",IC50 [2] [nM],IC50 [1] [nM],"IC50 [1, 4] [nM]"
COC(=O)c1cc(-c2ccccc2)sc1N [BDA-01],1270,1540,–,–
COC(=O)c1cc(-c2ccccc2)sc1NC(=O)OC(C)(C)C [BDA-02],1470,1500,–,–
CC(C)(C)OC(=O)Nc1sc(-c2ccccc2)cc1C(=O)O [BDA-03],1000,1630,–,–
Nc1sc(-c2ccccc2)cc1C(=O)NCCc1ccccc1 [BDA-05],1270,765,–,–
CC(C)(C)OC(=O)Nc1sc(-c2ccccc2)cc1C(=O)NCCc1ccc(S(N)(=O)=O)cc1 [BDA-06],1870,287,–,–
Nc1sc(-c2ccccc2)cc1C(=O)NCCc1ccc(S(N)(=O)=O)cc1 [BDA-07],996,116,–,–
O=C(Cc1c[nH]c2ccccc12)Nc1sc(-c2ccccc2)cc1C(=O)NCCc1ccccc1 [BDA-08],14700,–,–,–
CC(C)(C)OC(=O)NCC1CCN(C(=O)c2cc(-c3ccccc3)sc2NC(=O)OC(C)(C)C)CC1 [BDA-09],241,196,–,–
CC(C)(C)OC(=O)Nc1sc(-c2ccccc2)cc1C(=O)N1CCN(c2ccc(F)cc2)CC1 [BDA-10],5080,298,–,–
CC(C)CCNc1sc(-c2ccccc2)cc1C(=O)NCCc1ccccc1 [BDA-12],159,655,–,–
O=C(NCCc1ccccc1)c1cc(-c2ccccc2)sc1NCc1ncc[nH]1 [BDA-13],639,268,–,–
CC(C)(C)OC(=O)NCC(=O)Nc1sc(-c2ccccc2)cc1C(=O)NCCc1ccc(O)cc1 [BDA-17],1150,308,–,–
CC(C)(C)OC(=O)Nc1sc(-c2ccccc2)cc1C(=O)NCCC1=CCCCC1 [BDA-20],6310,2000,–,–
Cc1ccc(CCNC(=O)c2cc(-c3ccccc3)sc2NC(=O)OC(C)(C)C)cc1 [BDA-23],409,756,–,–
CC(C)(C)OC(=O)Nc1sc(-c2ccccc2)cc1C(=O)NCCc1ccc(O)c(O)c1 [BDA-25],181,403,–,–
CC(C)(C)OC(=O)Nc1sc(-c2ccccc2)cc1C(=O)NCCCc1ccccc1 [BDA-26],576,555,–,–
CC(C)(C)OC(=O)Nc1sc(-c2ccccc2)cc1C(=O)NCC(=O)c1ccccc1 [BDA-27],1230,369,–,–
CC(C)(C)OC(=O)Nc1sc(-c2ccccc2)cc1C(=O)NCCc1ccc(F)cc1 [BDA-28],1630,391,–,–
COc1ccc(CCNC(=O)c2cc(-c3ccccc3)sc2NC(=O)OC(C)(C)C)cc1 [BDA-29],1620,585,–,–
CC(C)(C)OC(=O)Nc1sc(-c2ccccc2)cc1C(=O)NCc1ccc(O)cc1 [BDA-30],2620,397,–,–
CC(C)(C)OC(=O)Nc1sc(-c2ccccc2)cc1C(=O)Nc1ccccc1 [BDA-31],1050,332,–,–
CC(C)(C)OC(=O)Nc1sc(Br)cc1C(=O)NCCc1ccc(O)cc1 [BDA-32],2760,641,–,–
CC(C)(C)OC(=O)Nc1sc(-c2ccc3c(c2)OCCO3)cc1C(=O)NCCc1ccc(O)cc1 [BDA-33],516,100,–,–
CC(C)(C)OC(=O)Nc1sc(-c2ccccc2)cc1C(=O)NCc1ccccc1 [BDA-34],849,212,–,–
CC(C)(C)OC(=O)Nc1sc(-c2cnc(N)nc2)cc1C(=O)NCCc1ccc(O)cc1 [BDA-35],2080,234,–,–
CC(C)(C)OC(=O)Nc1sc2c(c1C(=O)NCCc1ccc(O)cc1)CCN(Cc1ccccc1)C2 [BDA-36],–,3840,–,–

Compound,"IC50 [1, 3] [nM]",IC50 [2] [nM],IC50 [1] [nM],"IC50 [1, 4] [nM]"
CC(C)(C)OC(=O)Nc1sc(-c2ccccc2)cc1C(=O)Nc1ccc(N2CCOCC2)c(F)c1 [BDA-37],1080,349,–,–
CC(C)(C)OC(=O)Nc1sc(-c2ccccc2)cc1C(=O)NC1CCN(Cc2ccccc2)CC1 [BDA-38],805,185,–,–
CC(C)(C)OC(=O)Nc1sc(-c2ccccc2)cc1C(=O)NCC(c1ccccc1)c1ccccc1 [BDA-39],5640,15400,–,–
CC(C)(C)OC(=O)Nc1sc(-c2cncc(Cl)c2)cc1C(=O)NCCc1ccc(O)cc1 [BDA-40],–,11400,–,–
CC(C)(C)OC(=O)Nc1sc(-c2ccc3c(c2)OCO3)cc1C(=O)NCCc1ccc(O)cc1 [BDA-41],673,28.9,–,–
CC(C)(C)OC(=O)Nc1sc2c(c1C(=O)NCCc1ccc(O)cc1)CCC(c1ccccc1)C2 (stereo not drawn) [BDA-42],12200,2420,–,–
CC(C)(C)OC(=O)Nc1sc2c(c1C(=O)NCCc1ccc(O)cc1)CCCC2 [BDA-43],18400,2090,–,–
CC(C)(C)OC(=O)Nc1oc(-c2ccc(Cl)cc2)cc1C(=O)NCCc1ccc(O)cc1 [BDA-44],6110,830,–,–
CC(C)(C)OC(=O)Nc1sc(-c2ccc(C=O)cc2)cc1C(=O)NCCc1ccc(O)cc1 [BDA-45],3770,124,–,–
Nc1sc(-c2ccccc2)cc1C(=O)NCCc1ccc(F)cc1 [BDA-46],1640,740,–,–
CC(C)(C)OC(=O)Nc1sc(-c2cccc(N3CCOCC3)c2)cc1C(=O)NCCc1ccc(O)cc1 [BDA-47],1530,238,–,–
CC(C)(C)OC(=O)Nc1sc(-c2cccc(C=O)c2)cc1C(=O)NCCc1ccc(O)cc1 [BDA-48],1660,125,–,–
Cc1c(-c2ccccc2)sc(NC(=O)OC(C)(C)C)c1C(=O)NCCc1ccc(O)cc1 [BDA-49],5940,729,–,–
Nc1sc(-c2ccccc2)cc1C(=O)NCCc1ccc(O)cc1 [BDA-50],1140,360,–,–
CC(C)(C)OC(=O)Nc1sc(-c2cccc(N)c2)cc1C(=O)NCCc1ccc(O)cc1 [BDA-51],1240,226,–,–
Cc1ccc(-c2cc(C(=O)NCCc3ccc(O)cc3)c(NC(=O)OC(C)(C)C)s2)cc1 [BDA-52],558,119,–,–
CC(C)(C)OC(=O)Nc1sc(-c2cccc(C#N)c2)cc1C(=O)NCCc1ccc(O)cc1 [BDA-53],2720,383,–,–
CC(C)(C)OC(=O)Nc1sc(-c2ccc(F)cc2)cc1C(=O)NCCc1ccc(O)cc1 [BDA-54],845,158,–,–
CC(C)(C)OC(=O)Nc1sc(-c2ccc(Cl)c(Cl)c2)cc1C(=O)NCCc1ccc(O)cc1 [BDA-56],2220,556,–,–
COC(=O)c1c(N)sc2c1CCN(Cc1ccccc1)C2 [BDA-68],–,58300,–,–
COCCNC(=O)c1cc(-c2ccccc2)sc1N [compound 1],–,–,1590,–
C#CCNC(=O)c1cc(-c2ccccc2)sc1N [compound 2],–,–,–,4910
C=CCNC(=O)c1cc(-c2ccccc2)sc1N [compound 3],–,–,–,4610
CCCCNC(=O)c1cc(-c2ccccc2)sc1N [compound 4],–,–,–,3320
CCCNC(=O)c1cc(-c2ccccc2)sc1N [compound 5],–,–,–,5690

# From paper PMC9585585, “Discovery of Small-Molecule Allosteric Inhibitors of PfATC as Antimalarials” (Journal of the American Chemical Society, 2022)
